Results taken from patent US20180221352A1, “3-(1H-PYRROLO[2,3-C]PYRIDIN-2-YL)-1H-PYRAZOLO[3,4-B]PYRIDINES AND THERAPEUTIC USES THEREOF” (Samumed, LLC, priority 2015, published 2018).

Experiments:
Type in all cases: cell-based
[1] = tested on: Wnt activity (Sp5-Luc reporter, SW480 colon carcinoma cells); assay: Wnt activity screening assay, Sp5-Luc reporter gene in SW480 cells; settings: Homo sapiens; for EC50: Sp5-Luc reporter, SW480 cells, overnight incubation; for inhibition at 10 µM: SW480, read-out: percent inhibition at 10 μM
Outline: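 SW480 cells stably carrying a luciferase reporter driven by an Sp5 promoter with eight TCF/LEF sites, plated overnight in 1% FBS medium at 37 °C. Luminescence read with BrightGlo. Signals normalized to DMSO-treated cells; EC50 from four-parameter variable-slope fit.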

SW480 colon cancer cells = assay: Cell viability assay (CellTiter-Blue); settings: Homo sapiens; for EC50: 96 h, SW480 cell viability, four days; for inhibition at 10 µM: SW480, 96 h, read-out: percent inhibition at 10 μM
Outline: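 Fluorescence from resazurin reduced to resorufin by metabolically active cells was the read-out, taken after ~3 h with CellTiter-Blue.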

[2] = tested on: primary human fibroblasts derived from IPF patients (LL29 cells); assay: Inhibition of fibrotic process, αSMA staining in TGF-β1 treated fibroblasts; settings: Fibroblast; for EC50: 96 h, LL29 cells, TGF-β1 20 ng/mL, 4 days, % αSMA positive cells; for inhibition at 10 µM: read-out: percent inhibition at 10 μM
Outline: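 LL29 fibroblasts plated in F12 with 1% FBS were stimulated with TGF-β1 alongside compound, with TGF-β1 plus DMSO wells as controls. After 4 days of incubation, SYTOX green was added at 1 μM final for 30 min at room temperature.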

[3] = tested on: primary human mesenchymal stem cells (hMSCs); assay: Induction of chondrogenesis in hMSCs (nodule count); settings: 6 days; for Emax: relative to TGF-β3 (10 ng/mL) positive control, read-out: Max. Activity as % TGF-β3 activity; for EC50: concentration required to induce 50% levels of chondrogenesis vs TGF-β3, read-out: Conc (nM) of 50% TGF-β3 activity
Source text: Representative compounds were screened using primary human mesenchymal stem cells (hMSCs) to determine their ability to induce chondrogenesis (process by which cartilage is developed).
Primary human mesenchymal stem cells (hMSCs) were purchased from Lonza (Walkersville, Md.) and expanded in Mesenchymal Stem Cell Growth Media (Lonza). Cells between passage 3 and 6 were used for the experiments.
To image chondrogenic nodules, the cells were fixed using 4% formaldehyde (Electron Microscopy Sciences), and stained with 2 μg/mL Rhodamine B (Sigma-Aldrich) and 20 μM Nile Red (Sigma-Aldrich) [Johnson K., et. al, A Stem Cell-Based Approach to Cartilage Repair, Science, (2012). […] Number of nodules in each well was normalized to the average of 3 DMSO treated wells on the same plate using Excel (Microsoft Inc.). The normalized averages (fold change over DMSO) of 3 replicate wells for each compound concentration were calculated. Due to solubility limitations of some of the compounds, curve fitting was incomplete leading to inaccurate EC50 determinations.
Using TGF-β3 as a positive control, the concentration of representative compounds required to induce 50% levels of chondrogenesis is reported. In addition, the maximum activity of each compound and the respective dose that each compound reached maximum chondrogenesis activity is reported.

IL-6 = IL-6 inhibition in LPS-stimulated THP-1 cells (HTRF); settings: Homo sapiens; for EC50: THP-1 cells, LPS 500 ng/mL, 22 hours, IL6 HTRF; for inhibition at 10 µM: THP-1, read-out: percent inhibition at 10 μM
Outline: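 Serum-reduced (1% FBS, 24 h) THP-1 cells, 5000/well, exposed to compound 2 h at 37 °C, then stimulated with 500 ng/mL LPS for 22 h. Secreted IL-6 measured by HTRF (665/620 ratio), normalised to DMSO; EC50 by four-parameter fit, duplicates.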

For `CS(=O)(=O)NCc1cc(F)cc(-c2cncc3[nH]c(-c4n[nH]c5ncc(-c6cncc(NC(=O)C7CC7)c6)cc45)cc23)c1` [Compound 496, N-(5-(3-(4-(3-Fluoro-5-(methylsulfonamidomethyl)phenyl)-1H-pyrrolo[2,3-c]pyridin-2-yl)-1H-pyrazolo[3,4-b]pyridin-5-yl)pyridin-3-yl)cyclopropanecarboxamide], the EC50 [1] was 2630 nM, the EC50 (SW480 colon cancer cells) was over 10000 nM and the inhibition at 10 µM (SW480 colon cancer cells) was 49.3%. The EC50 [2] was 3530 nM, the Emax [3] was 23% and the EC50 (IL-6) was 93 nM.
Compound `Fc1cccc(-c2cncc3[nH]c(-c4n[nH]c5ncc(-c6cncc(CN7CCCCC7)c6)cc45)cc23)c1` [Compound 15, 3-(4-(3-Fluorophenyl)-1H-pyrrolo[2,3-c]pyridin-2-yl)-5-(5-(piperidin-1-ylmethyl)pyridin-3-yl)-1H-pyrazolo[3,4-b]pyridine] has an EC50 [1] of 3120 nM, an EC50 (SW480 colon cancer cells) of 3260 nM and an EC50 [2] of 1970 nM. The EC50 [3] was 10 nM, the Emax [3] was 108% and the inhibition at 10 µM (IL-6) was 41%. For the same compound, the EC50 (IL-6) was over 10000 nM.
`Cc1ncc(-c2cnc3[nH]nc(-c4cc5c(-c6ccncc6)cncc5[nH]4)c3c2)n1C` [Compound 573, 5-(1,2-Dimethyl-1H-imidazol-5-yl)-3-(4-(pyridin-4-yl)-1H-pyrrolo[2,3-c]pyridin-2-yl)-1H-pyrazolo[3,4-b]pyridine] gave an inhibition at 10 µM [1] of 7.1%, an EC50 [1] of over 10000 nM and an EC50 (SW480 colon cancer cells) of over 10000 nM. It also gave an inhibition at 10 µM (SW480 colon cancer cells) of 19.8%, an EC50 [2] of over 10000 nM and an inhibition at 10 µM [2] of 46.7%. It also gave an EC50 [3] of 10 nM, an Emax [3] of 194% and an inhibition at 10 µM (IL-6) of 0%. For the same compound, the EC50 (IL-6) was over 10000 nM.
`Fc1ccc(-c2cncc3[nH]c(-c4n[nH]c5ncc(-c6cncnc6)cc45)cc23)cc1` [Compound 55, 3-(4-(4-Fluorophenyl)-1H-pyrrolo[2,3-c]pyridin-2-yl)-5-(pyrimidin-5-yl)-1H-pyrazolo[3,4-b]pyridine] was tested, and the EC50 [1] was 594 nM, the EC50 (SW480 colon cancer cells) was 1130 nM and the EC50 [2] was 854 nM. It also gave an Emax [3] of 24%, an inhibition at 10 µM (IL-6) of 29.8% and an EC50 (IL-6) of over 10000 nM.
`CC(C)Nc1cncc(-c2cnc3[nH]nc(-c4cc5c(-c6cccc(F)c6)cncc5[nH]4)c3c2)c1` [Compound 12, 5-(3-(4-(3-Fluorophenyl)-1H-pyrrolo[2,3-c]pyridin-2-yl)-1H-pyrazolo[3,4-b]pyridin-5-yl)-N-isopropylpyridin-3-amine] was tested, and the EC50 [1] was 238 nM, the EC50 (SW480 colon cancer cells) was 851 nM and the EC50 [2] was 713 nM. The EC50 [3] was 900 nM, the Emax [3] was 104% and the EC50 (IL-6) was 148 nM.
In the case of `O=C(Nc1cncc(-c2cnc3[nH]nc(-c4cc5c(-c6cccnc6)cncc5[nH]4)c3c2)c1)c1ccccc1` [Compound 95, N-(5-(3-(4-(Pyridin-3-yl)-1H-pyrrolo[2,3-c]pyridin-2-yl)-1H-pyrazolo[3,4-b]pyridin-5-yl)pyridin-3-yl)benzamide], the inhibition at 10 µM [1] is reported as 0%, the EC50 [1] is reported as over 10000 nM and the EC50 (SW480 colon cancer cells) is reported as over 10000 nM. For the same compound, the inhibition at 10 µM (SW480 colon cancer cells) was 8.7%, the EC50 [2] was over 10000 nM and the inhibition at 10 µM [2] was 0%. The EC50 [3] was 100 nM, the Emax [3] was 155% and the inhibition at 10 µM (IL-6) was 46.5%. The EC50 (IL-6) was over 10000 nM.
`CN(C)CCOc1cncc(-c2cnc3[nH]nc(-c4cc5c(-c6ccc(F)cc6)cncc5[nH]4)c3c2)c1` [Compound 531, 2-((5-(3-(4-(4-Fluorophenyl)-1H-pyrrolo[2,3-c]pyridin-2-yl)-1H-pyrazolo [3,4-b]pyridin-5-yl)pyridin-3-yl)oxy)-N,N-dimethylethan-1-amine] showed an inhibition at 10 µM [1] of 48.5%, an EC50 [1] of over 10000 nM and an EC50 (SW480 colon cancer cells) of 3600 nM. It also gave an EC50 [2] of over 10000 nM, an inhibition at 10 µM [2] of 11.4% and an Emax [3] of 28%. The inhibition at 10 µM (IL-6) was 22.9% and the EC50 (IL-6) was over 10000 nM.
Compound `Fc1cccc(-c2cncc3[nH]c(-c4n[nH]c5ncc(-c6cccnc6)cc45)cc23)c1` [Compound 4, 3-(4-(3-Fluorophenyl)-1H-pyrrolo[2,3-c]pyridin-2-yl)-5-(pyridin-3-yl)-1H-pyrazolo[3,4-b]pyridine] has an EC50 [1] of 572 nM, an EC50 (SW480 colon cancer cells) of 1070 nM and an EC50 [2] of 1010 nM. The Emax [3] was 36% and the EC50 (IL-6) was 232 nM.
Work on `FC1(F)CCN(Cc2cncc(-c3cnc4[nH]nc(-c5cc6c(-c7ccncc7)cncc6[nH]5)c4c3)c2)C1` [Compound 138, 5-(5-((3,3-Difluoropyrrolidin-1-yl)methyl)pyridin-3-yl)-3-(4-(pyridin-4-yl)-1H-pyrrolo[2,3-c]pyridin-2-yl)-1H-pyrazolo[3,4-b]pyridine] yielded an inhibition at 10 µM [1] of 40.8%, an EC50 [1] of over 10000 nM and an EC50 (SW480 colon cancer cells) of over 10000 nM. For the same compound, the inhibition at 10 µM (SW480 colon cancer cells) was 24.1%, the EC50 [2] was 875 nM and the Emax [3] was 37%. It also gave an EC50 (IL-6) of 486 nM.
`CN(C)c1cncc(-c2cnc3[nH]nc(-c4cc5c(-c6ccncc6)cncc5[nH]4)c3c2)c1` [Compound 119, N,N-Dimethyl-5-(3-(4-(pyridin-4-yl)-1H-pyrrolo[2,3-c]pyridin-2-yl)-1H-pyrazolo[3,4-b]pyridin-5-yl)pyridin-3-amine] was tested, and the inhibition at 10 µM [1] was 2.5%, the EC50 [1] was over 10000 nM and the EC50 (SW480 colon cancer cells) was over 10000 nM. For the same compound, the inhibition at 10 µM (SW480 colon cancer cells) was 8.9%, the EC50 [2] was over 10000 nM and the inhibition at 10 µM [2] was 0%. It also gave an EC50 [3] of 10 nM, an Emax [3] of 191% and an inhibition at 10 µM (IL-6) of 40.7%. It also gave an EC50 (IL-6) of over 10000 nM.
With `CCNCc1cncc(-c2cnc3[nH]nc(-c4cc5c(-c6cc(F)cc(CNS(C)(=O)=O)c6)cncc5[nH]4)c3c2)c1` [Compound 482, N-(3-(2-(5-(5-((Ethylamino)methyl)pyridin-3-yl)-1H-pyrazolo[3,4-b]pyridin-3-yl)-1H-pyrrolo[2,3-c]pyridin-4-yl)-5-fluorobenzyl)methanesulfonamide] the inhibition at 10 µM [1] was 12.8%, the EC50 [1] was over 10000 nM and the EC50 (SW480 colon cancer cells) was over 10000 nM. The inhibition at 10 µM (SW480 colon cancer cells) was 7%, the EC50 [2] was 5030 nM and the Emax [3] was 43%. The inhibition at 10 µM (IL-6) was 47.9% and the EC50 (IL-6) was over 10000 nM.
For `c1cc2cc(-c3n[nH]c4ncc(-c5cncc(CN6CCCC6)c5)cc34)[nH]c2cn1` [Compound 266, 5-(5-(Pyrrolidin-1-ylmethyl)pyridin-3-yl)-3-(1H-pyrrolo[2,3-c]pyridin-2-yl)-1H-pyrazolo[3,4-b]pyridine], the EC50 [1] was 4880 nM, the EC50 (SW480 colon cancer cells) was 3680 nM and the EC50 [2] was over 10000 nM. The inhibition at 10 µM [2] was 12.9%, the Emax [3] was 36% and the inhibition at 10 µM (IL-6) was 47.6%. The EC50 (IL-6) was over 10000 nM.
With `CC(C)C(=O)Nc1cncc(-c2cnc3[nH]nc(-c4cc5c(-c6cc(F)cc(CNS(C)(=O)=O)c6)cncc5[nH]4)c3c2)c1` [Compound 485, N-(5-(3-(4-(3-Fluoro-5-(methylsulfonamidomethyl)phenyl)-1H-pyrrolo[2,3-c]pyridin-2-yl)-1H-pyrazolo[3,4-b]pyridin-5-yl)pyridin-3-yl)isobutyramide] the inhibition at 10 µM [1] was 49.8%, the EC50 [1] was over 10000 nM and the EC50 (SW480 colon cancer cells) was over 10000 nM. For the same compound, the inhibition at 10 µM (SW480 colon cancer cells) was 14%, the EC50 [2] was over 10000 nM and the inhibition at 10 µM [2] was 0%. The EC50 [3] was 30 nM, the Emax [3] was 60% and the EC50 (IL-6) was 27 nM.
Compound `CCNCc1cncc(-c2cnc3[nH]nc(-c4cc5c(-c6ccccc6F)cncc5[nH]4)c3c2)c1` [Compound 62, N-((5-(3-(4-(2-Fluorophenyl)-1H-pyrrolo[2,3-c]pyridin-2-yl)-1H-pyrazolo [3,4-b]pyridin-5-yl)pyridin-3-yl)methyl)ethanamine] has an EC50 [1] of 2300 nM, an EC50 (SW480 colon cancer cells) of 1910 nM and an EC50 [2] of 2670 nM. It also gave an Emax [3] of 37% and an EC50 (IL-6) of 9080 nM.
With `CC(C)CC(=O)Nc1cncc(-c2cnc3[nH]nc(-c4cc5c(-c6cc(F)cc(CNS(C)(=O)=O)c6)cncc5[nH]4)c3c2)c1` [Compound 478, N-(5-(3-(4-(3-Fluoro-5-(methylsulfonamidomethyl)phenyl)-1H-pyrrolo[2,3-c]pyridin-2-yl)-1H-pyrazolo[3,4-b]pyridin-5-yl)pyridin-3-yl)-3-methylbutanamide] the EC50 [1] was 2550 nM, the EC50 (SW480 colon cancer cells) was 7200 nM and the EC50 [2] was over 10000 nM. The inhibition at 10 µM [2] was 21.2%, the Emax [3] was 46% and the EC50 (IL-6) was 1170 nM.
